Consider seven molecules from US20110130432A1, “Heterocyclic Carboxamides For Use As Thrombin Inhibitors” (ASTRAZENECA AB, priority 2008, published 2011).

Structures are written as SMILES. pIC50: −log10 of the molar value.

For this test, the target named is T1, Human α-thrombin (Homo sapiens, UniProt P00734).
T1 construct: Human α-thrombin; purchased Sigma Chemical Co. or Hematologic Technologies
The test can be described thus: Test A: Determination of Thrombin Inhibition with a Chromogenic, Robotic Assay. The format is biochemical. The conditions noted are these: chromogenic substrate S-2366 0.30 mmol/L, α-thrombin 0.020 NIHU/mL, 40 minutes incubation at 37° C. The method, then:
Determination of Thrombin Inhibition with a Chromogenic, Robotic Assay
The thrombin inhibitor potency is measured with a chromogenic substrate method, in a Plato 3300 robotic microplate processor (Rosys AG, CH-8634 Hombrechtikon, Switzerland), using 96-well, half volume microtitre plates (Costar, Cambridge, Mass., USA; Cat No 3690). Stock solutions of test substance in DMSO (72 μL), 0.1-1 mmol/L, are diluted serially 1:3 (24+48 μL) with DMSO to obtain ten different concentrations, which are analyzed as samples in the assay. 2 μL of test sample is diluted with 124 μL assay buffer, 12 μL of chromogenic substrate solution (S-2366, Chromogenix, Mölndal, Sweden) in assay buffer and finally 12 μL of α-thrombin solution (Human α-thrombin, Sigma Chemical Co. or Hematologic Technologies) in assay buffer, are added, and the samples mixed. The final assay concentrations are: test substance […], S-2366 0.30 mmol/L, α-thrombin 0.020 NIHU/mL The linear absorbance increment during 40 minutes incubation at 37° C. is used for calculation of percentage inhibition for the test samples, as compared to blanks without inhibitor. The IC50 value, corresponding to the inhibitor concentration which causes 50% inhibition of the thrombin activity, is calculated from a log concentration vs. % inhibition curve.
Usually pIC50 stands for the IC50 on a negative log10 scale, so that one unit is a factor of ten. A higher pIC50 goes with a small IC50. The molecule `N#Cc1cccc(C(O)C(=O)N2OCC[C@H]2C(=O)NCc2cc(Cl)ccc2-n2cnnn2)c1` (stereo partly drawn) [Example 48, (3S)—N-[5-Chloro-2-(1H-tetrazol-1-yl)benzyl]-2-[(3-cyanophenyl)(hydroxy)acetyl]isoxazolidine-3-carboxamide] gave a pIC50 of 7.04.

`O=C(NCc1cc(Cl)ccc1-n1cnnn1)[C@@H]1CCNN1C(=O)C(O)c1ccccc1F` (stereo partly drawn) [Example 50, (3S)—N-[5-Chloro-2-(1H-tetrazol-1-yl)benzyl]-2-[(2-fluorophenyl)(hydroxy)acetyl]pyrazolidine-3-carboxamide] showed a pIC50 of 7.10.

Consider `O=C(NCc1cc(Cl)ccc1-n1cnnn1)[C@@H]1CCNN1C(=O)C(O)c1ccc(F)cc1F` (stereo partly drawn) [Example 51, (3S)—N-[5-Chloro-2-(1H-tetrazol-1-yl)benzyl]-2-[(2,4-difluorophenyl)(hydroxy)acetyl]pyrazolidine-3-carboxamide], for which the pIC50 was 7.20.

The molecule `O=C(NCc1cc(Cl)ccc1-n1cnnn1)[C@@H]1CCNN1C(=O)[C@H](O)c1ccc(F)cc1` [Example 52, (3S)—N-[5-Chloro-2-(1H-tetrazol-1-yl)benzyl]-2-[(2R)-2-(4-fluorophenyl)-2-hydroxyacetyl]pyrazolidine-3-carboxamide] had a pIC50 of 8.08.

As for `O=C(NCc1cc(Cl)ccc1-n1cnnn1)[C@@H]1CCNN1C(=O)C1(O)CCOc2ccccc21` (stereo partly drawn) [Example 53, (3S)—N-[5-Chloro-2-(1H-tetrazol-1-yl)benzyl]-2-[(4-hydroxy-3,4-dihydro-2H-chromen-4-yl)carbonyl]pyrazolidine-3-carboxamide], the pIC50 was 6.62.

Consider `O=C(NCc1cc(Cl)ccc1-n1cnnn1)[C@@H]1CCNN1C(=O)[C@H](O)C1CCCCC1` [Example 55, (3S)—N-[5-Chloro-2-(1H-tetrazol-1-yl)benzyl]-2-[(2R)-2-cyclohexyl-2-hydroxyacetyl]pyrazolidine-3-carboxamide], for which the pIC50 is 8.08.

Regarding `O=C(NCc1cc(Cl)ccc1-n1cnnn1)[C@@H]1CCNN1C(=O)[C@H](O)Cc1ccccc1` [Example 56, (3S)—N-[5-Chloro-2-(1H-tetrazol-1-yl)benzyl]-2-[(2R)-2-hydroxy-3-phenylpropanoyl]pyrazolidine-3-carboxamide], the pIC50 was 7.10.
